Experimental findings from patent US7163940B2, “Pyrazolopyridinyl pyrimidine therapeutic compounds” (SmithKline Beecham Corporation, priority 2000, dated 2007) are described below.

The first series concerns HSV-1. Briefly: HSV-1 replication in infected Vero 76 cells, viral DNA hybridization capture assay. The format is cell-based. The conditions noted are these: Human alphaherpesvirus 1, Vero 76, HSV-1, Vero 76 cells, MOI=0.001, 40–48 hours incubation. Summed up:
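Vero 76 cells infected with HSV-1 (MOI 0.001, 45 min, 37 °C), then incubated with compounds 40–48 h in 2% FBS medium. Viral DNA in NaOH/detergent lysates measured by hybridisation capture onto UL13 plasmid with digoxigenin-labelled UL15 probe, anti-digoxigenin-HRP chemiluminescence.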
Broadly, the IC50 is the point on the concentration scale where inhibition reaches its midpoint. A high value points to weaker potency in that assay. In the case of `CN(C)Cc1cc(-c2c(-c3ccc(F)cc3)nn3c(Cl)cccc23)nc(NC2CCCC2)n1` [Example 50, 4-[7-Chloro-2-(4-fluorophenyl)pyrazolo[1,5-α]pyridin-3-yl]-N-cyclopentyl-6-[(dimethylamino)methyl]-2-pyrimidinamine], the half-inhibitory concentration (IC50) came out at 5 µM.

For the compound `CC(C)c1nccc(-c2c(-c3ccc(F)cc3)nn3c(Cl)cccc23)n1` [Example 77, 7-Chloro-2-(4-fluorophenyl)-3-(2-isopropylpyrimidin-4-yl)pyrazolo[1,5-α]pyridine], the IC50 was > 20 µM. With `CCCCNc1nccc(-c2c(-c3ccc(F)cc3)nn3c(-c4ccco4)cccc23)n1` [Example 78, N-Butyl-4-[2-(4-fluorophenyl)-7-(2-furyl)pyrazolo[1,5-α]pyridin-3-yl]pyrimidin-2-amine], half-maximal inhibition (IC50) required 0.95 µM.

Regarding `Fc1ccc(-c2nn3c(Cl)cccc3c2-c2ccnc(NC3CC3)n2)cc1` [Example 79, 4-[7-Chloro-2-(4-fluorophenyl)pyrazolo[1,5-α]pyridin-3-yl]-N-cyclopropylpyrimidin-2-amine], the IC50 was > 20 µM. For `Cc1cc(-c2c(-c3ccc(F)cc3)nn3c(NC4CCCC4)cccc23)nc(N(C)C)n1` [Example 81, N-Cyclopentyl-3-[2-(dimethylamino)-6-methylpyrimidin-4-yl]-2-(4-fluorophenyl)pyrazolo[1,5-α]pyridin-7-amine], the half-inhibitory concentration (IC50) is > 20 µM.

On to `Fc1ccc(-c2nn3c(NC4CCCC4)cccc3c2-c2cc(-c3ccccc3)nc(NC3CCCC3)n2)cc1` [Example 82, N-Cyclopentyl-3-[2-(cyclopentylamino)-6-phenylpyrimidin-4-yl]-2-(4-fluorophenyl)pyrazolo[1,5-α]pyridin-7-amine], for which the IC50 was > 20 µM. `CSc1cccc2c(-c3cc(NC4CCCC4)ncn3)c(-c3ccc(F)cc3)nn12` [Example 83, N-Cyclopentyl-6-[2-(4-fluorophenyl)-7-(methylthio)pyrazolo[1,5-α]pyridin-3-yl]pyrimidin-4-amine] showed a 50% inhibitory concentration (IC50) of 1.3 µM. In turn, `Fc1ccc(-c2nn3c(NC4CCCC4)cccc3c2-c2cc(NC3CCCC3)ncn2)cc1` [Example 84, N-cyclopentyl-3-[6-(cyclopentylamino)pyrimidin-4-yl]-2-(4-fluorophenyl)pyrazolo[1,5-α]pyridin-7-amine] gave an IC50 of 1.3 µM.

Tested on in a further series: not given
Test: not given
Details: not given
Usually melting point stands for the temperature, or range, at which the solid turns liquid. `CN(C)Cc1cc(-c2c(-c3ccc(F)cc3)nn3c(Cl)cccc23)nc(NC2CCCC2)n1` [Example 50, 4-[7-Chloro-2-(4-fluorophenyl)pyrazolo[1,5-α]pyridin-3-yl]-N-cyclopentyl-6-[(dimethylamino)methyl]-2-pyrimidinamine] registered a melting point of 68 to 75 °C.
